Assay [1] relates to cell strain HCC827GR5. As to the kind of experiment: Cell proliferation suppressing activity (CellTiter Glo) against cell strain HCC827GR5. The format is cell-based, human. To be noted: 7th day of treatment. (In general: Cellular ATP, detected with luciferase, serves as a proxy for viable cell number.)
Description: Cell strain HCC827GR5 was cultured in a medium obtained by adding gefitinib at a final concentration of 1 μM into the aforementioned medium.
Cell strain HCC827GR5 was cultured in a medium obtained by adding gefitinib at a final concentration of 1 μM into RPMI1640 medium (manufactured by Sigma-Aldrich Corp.) containing R10 medium (10% fetal bovine serum and 1% penicillin-streptomycin B (manufactured by Wako Pure Chemical Industries, Ltd.)). After cell strain HCC827GR5 was cultured, the cells were detached by trypsin treatment and then collected. The number of cells in the cell suspension was measured, and the cells were suspended in RPMI1640 medium containing 10% fetal bovine serum. The suspension was adjusted to have a concentration of 100,000 cells/mL. 50 μL of each cell suspension was added to each well of SUMILON 96-well plate (manufactured by Sumitomo Bakelite Co., Ltd.) (5,000 cells/well), and culture was carried out. […] On the 7th day from the initiation of treatment, 50 μL of CellTiter Glo (manufactured by Promega Corp.) was added to each well and then the culture system was stirred for 2 minutes with a plate mixer. The plate was left to stand for 30 minutes under light-shielded conditions. An aliquot of 120 μL was taken from each well and was transferred onto a black microplate, and the luminescence values were measured with a luminometer.
Assay [2] concerns cell strain HCC827GR5 transplanted in nude mice. As to the kind of experiment: Antitumor effect on cell strain HCC827GR5 transplanted in nude mice. To be noted: for Estimated tumor volume Average value: HER3-ADC (1) 10 mg/kg i.p. once a week, erlotinib 25 mg/kg oral six times a week; for Tumor growth inhibition ratio (%): compared with the control group, HER3-ADC (1) 10 mg/kg i.p., erlotinib 25 mg/kg oral. Format: in vivo, nude mice (BALB/cAJcl-nu/nu). Here is the method: Cell strain HCC827GR5 was cultured in RPMI1640 medium (manufactured by Sigma-Aldrich Corp.) containing R10 medium (10% fetal bovine serum and 1% penicillin-streptomycin B (manufactured by Wako Pure Chemical Industries, Ltd.)) and erlotinib at a final concentration of 1 μM, subsequently the cells were detached by trypsin treatment and then collected. The number of cells in the cell suspension was measured, and the cells were suspended in R10 medium. The suspension was adjusted to have a concentration of 75,000,000 cells/mL. 100 μL of the cell suspension thus prepared (7,500,000 cells) was transplanted subcutaneously into the ventral region of 6-week old female nude mice (BALB/cAJcl-nu/nu), and then after 7 days from tumor transplantation, at which the average value of the estimated […] tumor volume of the transplanted tumors became […], grouping was carried out. Then, drug administration was initiated (day 0). HER3-ADC (1) was dissolved in phosphate buffer saline (PBS), and the solution was adjusted to have a concentration of 1 mg/mL. Erlotinib was dissolved in a hydroxypropylmethyl cellulose (HPMC) solution, and the solution was adjusted to have a concentration of 2.75 mg/mL. To the single-agent treatment groups of each drug, from day 0 to day 49 at the maximum, prepared HER3-ADC (1) was administered intraperitoneally once a week (7 times in total) at a dose of 200 μL/mouse (10 mg/kg), and prepared erlotinib was administered orally six times a week (19 in total) at a dose of 0.18 mL/mouse (25 mg/kg). On the other hand, to the combination treatment group, HER3-ADC (1) and erlotinib were administered from day 0 at the same dose in the same schedule as those of the single-agent treatment groups. A control group, which was not subjected to administration, was also established. For all of the groups, ten mice were used per group. After the initiation of administration, the tumor diameters (major axis and minor axis) were measured twice a week (on days 0, 3, 7, 10, 14, 17, 21, 24, 28, 31, 35, 38, 41, 45, and 49), and the estimated tumor volumes in each group were calculated according to the following formula. Subsequently, the average value of the estimated tumor volume for each group was calculated. Estimated tumor volume (Volume, mm^3)=major axis (mm)×minor axis (mm)^2÷2
Furthermore, the tumor growth inhibition ratio of each group compared with the control group was calculated according to the following formula. Tumor growth inhibition ratio (%)=100−(average value of estimated tumor volume of treatment group÷average value of estimated tumor volume of control group×100)
From the viewpoint of animal ethics, the measurement for the control and erlotinib single-agent treatment groups was terminated at the 21st day since the estimated tumor volume reached 1,200 to 1,500 mm^3. Along with this, the calculation of the tumor growth inhibition ratio (%) was made up to day 21.

Assay [3] has as its system cell strain HCC827GR5. Conditions: reported in K. Yonesaka et al., Oncogene (2016) 35, 878-886; cited from earlier work.
In assay [4] the test system is cell strain PC9. Put plainly: Cell proliferation suppressing activity of osimertinib against cell strain PC9. Format: cell-based, human. To be noted: 0.01 μM or higher concentrations of osimertinib; 3rd day of treatment. As for the experimental part:
(§1) Cell strains PC9 and PC9AZDR7 were cultured in RPMI1640 medium (manufactured by Sigma-Aldrich Corp.) containing 10% fetal bovine serum and 1% penicillin-streptomycin B (manufactured by Wako Pure Chemical Industries, Ltd.). PC9AZDR7 was cultured with 100 nM osimertinib added to the medium. After cell strains PC9 and PC9AZDR7 were cultured, the cells were detached by trypsin treatment and then collected. […] Subsequently, 50 μL of each cell suspension was added into each well of SUMILON 96-well plate (manufactured by Sumitomo Bakelite Co., Ltd.) (10,000 cells/well), and culture was carried out. One day after the initiation of culture, osimertinib dilutions, each of which was prepared to have one of various concentrations, or as a negative control, RPMI-1640 medium not containing any drug was added, and culture was carried out. […] The plate was left to stand for 30 minutes under light-shielded conditions. […] The cell proliferation suppressing activity (% of control) of each drug was calculated using the following formula. % of Control=(Average luminescence value in specimen-added wells÷average luminescence value in negative control wells)×100

In assay [5] the test system is cell strain PC9AZDR7. Put plainly: Cell proliferation suppressing activity of osimertinib against cell strain PC9AZDR7. Format: cell-based, human. To be noted: 1 μM or lower concentrations of osimertinib; 3rd day of treatment. As for the experimental part: as §1
Assay [6] has as its system cell strain PC9AZDR7 transplanted in nude mice. Put plainly: Antitumor effect of combination of HER3-ADC (1) and osimertinib on cell strain PC9AZDR7 transplanted in nude mice. Format: in vivo, nude mice (BALB/cAJcl-nu/nu). Conditions: for Estimated tumor volume Average value: HER3-ADC (1) 1 mg/kg i.p. on Day 1, osimertinib 1 mg/kg oral Days 1-5, 8-12, 15-19; for Tumor growth inhibition ratio (%): compared with the control group, HER3-ADC (1) 1 mg/kg i.p., osimertinib 1 mg/kg oral. As for the experimental part:
Cell strain PC9AZDR7 was cultured in RPMI1640 medium (manufactured by Sigma-Aldrich Corp.) containing 10% fetal bovine serum and 1% penicillin-streptomycin B (manufactured by Wako Pure Chemical Industries, Ltd.) and 100 nM osimertinib. After cell strain PC9AZDR7 was cultured, the cells were detached by trypsin treatment and then collected. […] From the next day of grouping (1st day), drug administration was initiated. […] As a control group, a group not receiving any administration was established. […] After the initiation of administration, the tumor diameters (major axis and minor axis) were measured twice a week, and the estimated tumor volume in each group was calculated according to the following formula. Subsequently, the average value of the estimated tumor volume for each group was calculated. […] The tumor growth inhibition ratio of each group compared with the control group was calculated using the following formula.

The structures appear in SMILES notation.

In the case of `C#Cc1cccc(Nc2ncnc3cc(OCCOC)c(OCCOC)cc23)c1` [Erlotinib, erlotinib], the “cell proliferation suppressing activity (% Control)” value is 69.2% in assay [1] (1 μg/mL of erlotinib (so in the source)), 52.6% in assay [1] (3.3 μg/mL of erlotinib (so in the source)) and 31.7% in assay [1] (10 μg/mL of erlotinib (so in the source)). Also, the “Estimated tumor volume Average value” is listed as 124.5 mm^3 in assay [2] (Day 0); 189.7 mm^3 in assay [2] (Day 3); 347.5 mm^3 in assay [2] (Day 7); 420.0 mm^3 in assay [2] (Day 10); 747.8 mm^3 in assay [2] (Day 14); 1117.9 mm^3 in assay [2] (Day 17). Besides, the “Estimated tumor volume Average value” in assay [2] (Day 21) was 1225.5 mm^3. For the same compound, the “Tumor growth inhibition ratio (%)” value in assay [2] (Day 0) was 2.7%; in assay [2] (Day 3) it was 22.0%; in assay [2] (Day 7) it was 26.0%; in assay [2] (Day 10) it was 29.1%; in assay [2] (Day 14), 14.5%; in assay [2] (Day 17) it was 20.4%. Besides, the “Tumor growth inhibition ratio (%)” value in assay [2] (Day 21) was 21.1%. Also, the “antitumor effect / efficacy (in words)” value in assay [2] (on Day 21, Dunnet's Multiple Comparison test p<0.001 for the significant effects) is listed as “did not exhibit efficacy”. Moreover, the “sensitivity to alone therapy” value in assay [3] is recorded as “not to exhibit strong sensitivity”.

Turning to `C=CC(=O)Nc1cc(Nc2nccc(-c3cn(C)c4ccccc34)n2)c(OC)cc1N(C)CCN(C)C` [Osimertinib, osimertinib], the “cell proliferation suppressing activity” value is on record as “Strong cell proliferation suppressing activities” in assay [4] and “no cell proliferation suppressing activity was observed” in assay [5]. Also, the “Estimated tumor volume Average value” in assay [6] (Day 0) is given as 64.2 mm^3; in assay [6] (Day 5), 249.3 mm^3; in assay [6] (Day 8), 271.7 mm^3; in assay [6] (Day 11) it was 357.2 mm^3; in assay [6] (Day 16), 533.4 mm^3; in assay [6] (Day 18) it was 650.7 mm^3. Moreover, in assay [6] (Day 21), the “Estimated tumor volume Average value” is reported as 710.6 mm^3. For the same compound, the “Tumor growth inhibition ratio (%)” value in assay [6] (Day 0) was 5.3%; in assay [6] (Day 5), 6.0%; in assay [6] (Day 8), 5.8%; in assay [6] (Day 11), 17.9%; in assay [6] (Day 16), 6.7%; in assay [6] (Day 18) it was 9.8%. The “Tumor growth inhibition ratio (%)” value in assay [6] (Day 21) was 27.7%.

Source of the values: patent US12667557B2, “Method for treating EGFR-TKI-resistant non-small cell lung cancer by administration of anti-HER3 antibody-drug conjugate” (priority 2017, dated 2026).
